Results published in patent US11142529B2 (priority 2013, dated 2021).

Assays:
aged-impaired (AI) rats [1] = experiment: Morris water maze behavioral task (Example 109); assay type: in vivo, rat; settings: 100 μg ICV
Procedure: The effects of 6,6 dimethyl-3-(3-hydroxypropyl)thio-1-(thiazol-2-yl)-6,7-dihydro-2-benzothiophen-4(5H)-one on the in vivo spatial memory retention of aged-impaired (AI) rats were assessed in a Morris water maze behavioral task. A water maze is a pool surrounded with a novel set of patterns relative to the maze.
Cognitively impaired aged rats were implanted unilaterally with a cannula into the lateral ventricle. Stereotaxic coordinates were 1.0 mm posterior to bregma, 1.5 mm lateral to midline, and 3.5 mm ventral to the skull surface. After about a week of recovery, the rats were pre-trained in a water maze for 2 days (6 trials per day) to locate a submerged escape platform hidden underneath the surface of the pool, in which the escape platform location varied from day to day. No intracerebroventricular (ICV) infusion was given during pre-training.
After pre-training, rats received ICV infusion of either 100 μg 6,6 dimethyl-3-(3-hydroxypropyl)thio-1-(thiazol-2-yl)-6,7-dihydro-2-benzothiophen-4(5H)-one (n=6) in 5 μl DMSO or vehicle DMSO (n=5) 40 min prior to water maze training and testing. Training consisted of 8 trials per day for 2 days where the hidden escape platform remained in the same location. Rats were given 60 seconds to locate the platform with a 60 seconds inter-trial interval. The rats were given a probe test (120 seconds) 24 hr after the end of training where the escape platform was removed. During the training, there were 4 blocks, where each block had 4 training trials.
During a test trial 24 hr after training, the escape platform was removed. The search/swim pattern of the rats was used to measure whether the rats remember where the escape platform was located during pre-trial training in order to test for the long-term memory of the rats. In this trial, “target annulus” is a designated area 1.5 times the size of the escape platform around the area where the platform was located during pre-trial training. “Opposite annulus” is a control area of the same size as the size of the target annulus, which is located opposite to the target annulus in the pool. If the rats had good long term memory, they would tend to search in the area surrounding the location where the platform was during the pre-trial training (i.e., the “target” annulus; and not the “opposite” annulus). “Time in annulus” is the amount of time in seconds that the rat spent in the target or opposite annulus area. “Number (#) of crossings” in annulus is the number of times the rat swam across the target or opposite annulus area.

GABAA receptors (α5β2γ2) = molecular target: T1, GABAA receptors (α5β2γ2) (Homo sapiens, UniProt P18507+P31644); experiment: Positive allosteric modulator activity, potentiation of EC20 GABA current in oocytes; assay type: cell-based; settings: read-out: GABA α5 functional potentiation
T1 construct: expressed in transfected cells; host or cells: oocytes injected with a mix of alpha, beta and gamma cDNA (1:1:10 by weight)
Procedure: On day 1, 1 ng/32 nL of GABAA […] cDNA was injected into one oocyte. Test starts on day 2. The cDNA injected to the oocytes was a mix of alpha, beta and gamma, their ratio is 1:1:10 (by weight) and the total weight of the mixed 3 subunits to be injected in one oocyte was 1 ng in 32 nl volume. The injected oocytes can also be tested on day 3. In such case, the cDNA amount injected to the oocytes should be reduced by 20%.
1). 8 oocytes were placed in 8 chambers of OpusXpress and superfused with Modified Barth's Saline (MBS) at 3 mL/min. Glass electrodes back-filled with 3M KCl (0.5-3 megaohms) were used.
3). […] Oocytes were washed with MBS for 5-10 min.
2). […] Divide Itest by IGABA to obtain potentiation (%).
3). Discard all tested oocytes, new oocytes were used and the above steps 1) and 2) were repeated to test second concentration of the same compound. Each oocyte was used for only one concentration test for a single test compound. The steps were repeated for other test compounds.

α5β3γ2 GABAA receptors = molecular target: T2, α5β3γ2 GABAA receptors (Homo sapiens, UniProt P18507+P31644); experiment: Binding activity of test compounds on GABAAR ([3H]Ro15-1788 inhibition, Ltk cell membranes)
T2 construct: membranes
Procedure: The binding was performed on Ltk cells stably expressing GABAA receptors: α1β1γ2, α2β3γ2, α3β3γ2 and α5β3γ2 (provided by Merck Co., NJ, USA). Cells were seeded in 100 mm culture plates in DMEM/F12 medium containing 10% serum and antibiotics in 5% C02 and allowed to grow for 1-2 days. GABAAR expression was then induced by dexamethasone as follows: 0.5 μM for 1 day for α5 containing and 2 μM for 3 days for α1, α2 and α3 containing GABAARs. After induction, cells were collected by scraping into Dulbecco's Phosphate buffered saline (DPBS, pH 7.4, Invitrogen, Carlsbad, Calif., USA) and centrifuged at 150×g for 10 min. The pellet was washed twice by re-suspension and centrifugation. The cell pellets from at least 5 different preps were combined, suspended in the binding assay buffer (50 mM KH2PO4; 1 mM EDTA; 0.2 M KCl, pH 7.4) and membranes prepared by sonication (3-5 times, 30 sec) using Branson Sonifier 150 (G.Heinmann, Germany). Protein content was determined using BCA assay (Bio-Rad Labs, Reinach, Switzerland) with Bovine Serum Albumin (Sigma Aldrich, St. Louis, Mo., USA) as the standard. Aliquots were prepared and stored at −20° C. for further use in binding assays.
Saturation binding curves were obtained by incubating membranes with increasing concentrations (0.01-8 nM) of [^3H]Ro15-1788 (Flumazepil, 75-85 Ci/mmol, PerkinElmer, MA, USA), with nonspecific binding measured in the presence of 10 μM diazepam.
All binding assays were performed for 1 h at 4° C. in assay buffer. The total assay volume was 0.5 ml containing 0.2 mg/ml protein for α5 and 0.4 mg/ml for α1, α2, and α3 containing GABAAR membranes. Incubations were terminated by filtration through GF/B filters using a 24-Cell Harvestor (Brandel, Gaithersburg, Md., USA) followed by 3 washes with ice-cold assay buffer. Filters were transferred to scintillation vials, 5 ml scintillation liquid added, vortex-mixed and kept in dark. Next day, radioactivity was obtained using a scintillation counter (Beckman Coulter, Brea, Calif., USA). All assays were performed in triplicate.
Saturation and inhibition curves were obtained using GraphPad Prism software (GraphPad Software, Inc., CA, USA).

[2] = molecular target: T3, α5-containing GABAA receptor (Rattus norvegicus, UniProt P18508+P19969); assay type: in vivo; settings: i.v.; for effect on Ro 15-4513 binding in hippocampus: 0.01-10 mg/kg
T3 construct: occupancy in the hippocampus (a region of high GABAAα5 receptor density); from tissue; host or cells: rat brain in vivo; hippocampus versus cerebellum

[3] = test system: α5-containing GABAA receptor; assay type: in vivo, rat; settings: 0.01-10 mg/kg, i.v.
GABAAα5 receptor = molecular target: T4, GABAAα5 receptor (Rattus norvegicus, UniProt P18508+P19969); experiment: GABAA α5 receptor occupancy with Ro 15-4513 tracer (Example 107B); assay type: in vivo, Long Evans rats
T4 construct: occupancy in the hippocampus (a region of high GABAAα5 receptor density); from tissue; host or cells: rat brain in vivo; hippocampus versus cerebellum
Excerpt: Food and water were available ad libitum.

MAM-treated rats = settings: cited from earlier work
aged-impaired (AI) rats [4] = experiment: Radial Arm Maze (RAM) behavioral task, four-hour delay (Example 108); assay type: in vivo, rat
Procedure: The same experiment was repeated using the same vehicle control and doses of ethyl 3-methoxy-7-methyl-9H-benzo[f]imidazo[1,5-a][1,2,4]triazolo[4,3-d][1,4]diazepine-10-carboxylate, where the vehicle control was tested 5 times, the 3 mg/kg dose of ethyl 3-methoxy-7-methyl-9H-benzo[f]imidazo[1,5-a][1,2,4]triazolo[4,3-d][1,4]diazepine-10-carboxylate was tested 4 times, and the other doses of ethyl 3-methoxy-7-methyl-9H-benzo[f]imidazo[1,5-a][1,2,4]triazolo[4,3-d][1,4]diazepine-10-carboxylate were tested twice.
Parametric statistics (paired t-tests) was used to compare the retention test performance of the AI rats in the four-hour delay version of the RAM task in the context of different doses of ethyl 3-methoxy-7-methyl-9H-benzo[f]imidazo[1,5-a][1,2,4]triazolo[4,3-d][1,4]diazepine-10-carboxylate and vehicle control (see FIG. 5).

[5] = probe test 24 hr after training
[6] = vehicle then tracer 1 μg/kg i.v.

T2 sequence (P31644 32-462): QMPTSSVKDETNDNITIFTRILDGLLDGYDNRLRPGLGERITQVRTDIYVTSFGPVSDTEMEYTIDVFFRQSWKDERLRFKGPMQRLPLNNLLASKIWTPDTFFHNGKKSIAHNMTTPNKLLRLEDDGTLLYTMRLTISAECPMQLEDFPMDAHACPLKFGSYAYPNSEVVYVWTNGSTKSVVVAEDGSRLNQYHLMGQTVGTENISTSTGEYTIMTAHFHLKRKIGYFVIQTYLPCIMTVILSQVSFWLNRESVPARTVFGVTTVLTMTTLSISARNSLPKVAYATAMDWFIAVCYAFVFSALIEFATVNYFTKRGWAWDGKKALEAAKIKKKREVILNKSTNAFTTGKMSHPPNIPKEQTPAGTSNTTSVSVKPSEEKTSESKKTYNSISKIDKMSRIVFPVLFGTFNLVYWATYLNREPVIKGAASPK
T2 sequence (P28472 26-473 partner): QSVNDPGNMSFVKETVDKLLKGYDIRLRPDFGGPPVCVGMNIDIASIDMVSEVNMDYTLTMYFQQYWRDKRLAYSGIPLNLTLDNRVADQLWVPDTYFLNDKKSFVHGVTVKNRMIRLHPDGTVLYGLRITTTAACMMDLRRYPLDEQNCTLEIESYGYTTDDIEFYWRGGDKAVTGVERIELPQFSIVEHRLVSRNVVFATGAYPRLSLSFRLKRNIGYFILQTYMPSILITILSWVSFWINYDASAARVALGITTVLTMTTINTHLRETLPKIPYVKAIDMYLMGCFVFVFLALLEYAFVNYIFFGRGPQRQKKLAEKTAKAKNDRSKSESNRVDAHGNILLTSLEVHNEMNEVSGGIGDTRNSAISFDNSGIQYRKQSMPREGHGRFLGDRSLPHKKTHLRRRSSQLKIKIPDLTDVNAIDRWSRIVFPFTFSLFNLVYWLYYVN
T2 sequence (P18507 40-475): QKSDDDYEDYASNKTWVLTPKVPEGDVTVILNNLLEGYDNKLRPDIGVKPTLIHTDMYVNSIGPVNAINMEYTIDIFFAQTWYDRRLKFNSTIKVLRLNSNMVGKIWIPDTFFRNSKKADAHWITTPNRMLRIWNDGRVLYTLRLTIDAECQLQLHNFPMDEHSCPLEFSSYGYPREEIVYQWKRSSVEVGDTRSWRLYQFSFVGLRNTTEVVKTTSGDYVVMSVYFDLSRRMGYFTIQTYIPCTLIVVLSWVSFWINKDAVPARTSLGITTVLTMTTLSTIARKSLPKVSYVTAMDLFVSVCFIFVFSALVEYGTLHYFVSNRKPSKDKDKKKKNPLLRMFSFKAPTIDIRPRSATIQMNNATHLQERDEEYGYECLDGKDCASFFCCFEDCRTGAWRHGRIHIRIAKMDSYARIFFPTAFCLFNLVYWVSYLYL
T1 sequence (P31644 32-462): as the sequence (P31644 32-462) above
T1 sequence (P47870 25-512 partner limits assumed): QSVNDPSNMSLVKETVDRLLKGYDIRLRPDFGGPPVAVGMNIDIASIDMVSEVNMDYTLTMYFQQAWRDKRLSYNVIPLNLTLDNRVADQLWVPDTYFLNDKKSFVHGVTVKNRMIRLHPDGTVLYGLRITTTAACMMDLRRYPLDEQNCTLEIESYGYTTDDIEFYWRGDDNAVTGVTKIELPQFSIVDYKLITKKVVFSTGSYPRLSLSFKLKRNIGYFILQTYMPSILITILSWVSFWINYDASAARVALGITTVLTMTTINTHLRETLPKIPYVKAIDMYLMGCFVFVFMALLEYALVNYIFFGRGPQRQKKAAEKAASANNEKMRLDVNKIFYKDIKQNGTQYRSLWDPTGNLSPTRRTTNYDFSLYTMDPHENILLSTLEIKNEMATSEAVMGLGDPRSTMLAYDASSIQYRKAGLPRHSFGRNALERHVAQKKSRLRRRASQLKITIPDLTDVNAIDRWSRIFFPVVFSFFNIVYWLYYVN
T1 sequence (P18507 40-475): as the sequence (P18507 40-475) above
T3 sequence (P19969 32-464 limits assumed): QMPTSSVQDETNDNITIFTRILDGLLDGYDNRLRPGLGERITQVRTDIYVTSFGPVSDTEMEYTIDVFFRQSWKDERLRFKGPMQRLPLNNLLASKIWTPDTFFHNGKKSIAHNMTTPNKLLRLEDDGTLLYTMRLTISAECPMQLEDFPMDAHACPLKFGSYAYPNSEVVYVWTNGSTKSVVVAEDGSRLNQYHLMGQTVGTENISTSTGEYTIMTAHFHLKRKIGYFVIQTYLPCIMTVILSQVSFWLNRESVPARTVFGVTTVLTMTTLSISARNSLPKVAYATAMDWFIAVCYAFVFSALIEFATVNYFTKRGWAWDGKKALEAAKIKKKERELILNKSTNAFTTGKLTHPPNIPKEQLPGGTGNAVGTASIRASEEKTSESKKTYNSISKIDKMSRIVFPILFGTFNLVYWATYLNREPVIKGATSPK
T3 sequence (P18508 39-466): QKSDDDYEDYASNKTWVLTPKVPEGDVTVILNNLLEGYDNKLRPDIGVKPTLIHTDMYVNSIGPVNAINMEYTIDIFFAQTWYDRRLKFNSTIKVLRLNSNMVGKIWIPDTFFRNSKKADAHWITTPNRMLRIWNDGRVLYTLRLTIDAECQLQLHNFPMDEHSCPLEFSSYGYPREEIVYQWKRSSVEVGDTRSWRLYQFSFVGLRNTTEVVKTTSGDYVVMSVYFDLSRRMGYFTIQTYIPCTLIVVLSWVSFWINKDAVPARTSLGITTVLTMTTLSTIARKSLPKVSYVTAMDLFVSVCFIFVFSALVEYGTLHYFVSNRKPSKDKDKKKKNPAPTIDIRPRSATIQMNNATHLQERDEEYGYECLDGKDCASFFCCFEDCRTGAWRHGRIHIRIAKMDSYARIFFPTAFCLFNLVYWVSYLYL
T4 sequence (P19969 32-464 limits assumed): as the sequence (P19969 32-464 limits assumed) above
T4 sequence (P18508 39-466): as the sequence (P18508 39-466) above

Structure (SMILES) | activation at 0.1 µM (GABAA receptors (α5β2γ2)) [%] | Ki (α5β3γ2 GABAA receptors) [nM] | further results
CC1(C)CC(=O)c2c(SCCCO)sc(-c3nccs3)c2C1 [6,6 dimethyl-3-(3-hydroxypropyl)thio-1-(thiazol-2-yl)-6,7-dihydro-2-benzothiophen-4(5H)-one] |  |  | learning of the water maze task (aged-impaired (AI) rats [1]): improved the learning; long-term memory in the water maze task (aged-impaired (AI) rats [1]): improved the long-term memory; number of crossings of target annulus compared to opposite annulus (aged-impaired (AI) rats [1]; [5]): more often; time in target annulus compared to opposite annulus (aged-impaired (AI) rats [1]; [5]): spent significantly more time in the target annulus; time to find the escape platform (escape latency) (aged-impaired (AI) rats [1]; training block 1): about 24 seconds; time to find the escape platform (escape latency) (aged-impaired (AI) rats [1]; training block 4): about 9.6 seconds
Cc1nnn2c1Cc1c(-c3noc(C(C)C)n3)ncn1-c1ccc(F)cc1-2 [Compound 149] | > 50 | < 99 | 
Cc1nnn2c1Cc1c(C(=O)OC(C)C)ncn1-c1ccccc1-2 [Compound 153] | 20 to 49 | < 99 | 
CCc1nc(-c2ncn3c2Cc2c(C)nnn2-c2cc(F)ccc2-3)no1 [Compound 155] | 20 to 49 | < 99 | 
CCc1nc(-c2ncn3c2Cn2c(COc4ccccc4)nnc2-c2cc(F)ccc2-3)no1 [Compound 158] | 20 to 49 | < 99 | 
Cc1nnn2c1Cc1c(-c3noc(C(C)(C)C)n3)ncn1-c1ccc(F)cc1-2 [Compound 160] | > 50 | < 99 | 
COc1ccc2c(c1)-c1nnc(COc3ccccc3)n1Cc1c(-c3noc(C)n3)ncn1-2 [Compound 162] | 20 to 49 | < 99 | 
COc1ccc2c(c1)-c1nnc(COc3ccc(F)cc3)n1Cc1c(-c3noc(C)n3)ncn1-2 [Compound 163] | 20 to 49 | < 99 | 
COc1ccc2c(c1)-c1nnc(COc3ccccc3)n1Cc1c(-c3noc(C(C)C)n3)ncn1-2 [Compound 171] | > 50 | < 99 | 
COc1ccc2c(c1)-c1nnc(COc3ccc(F)cc3)n1Cc1c(-c3noc(C(C)C)n3)ncn1-2 [Compound 172] | > 50 | < 99 | 
CCOCc1nnc2n1Cc1c(-c3noc(C(C)C)n3)ncn1-c1ccc(OC)cc1-2 [Compound 173] | > 50 | < 99 | 
COc1ccc2c(c1)-c1nnc(COc3ccccc3F)n1Cc1c(-c3noc(C(C)C)n3)ncn1-2 [Compound 174] | > 50 | < 99 | 
COc1ccc2c(c1)-c1nnc(COc3ccccc3Cl)n1Cc1c(-c3noc(C(C)C)n3)ncn1-2 [Compound 175] | 20 to 49 | < 99 | 
COc1ccc2c(c1)-c1nnc(COc3cccnc3)n1Cc1c(-c3noc(C(C)C)n3)ncn1-2 [Compound 176] | > 50 | < 99 | 
COc1ccc2c(c1)-c1nnc(COc3cccc4ccccc34)n1Cc1c(-c3noc(C(C)C)n3)ncn1-2 [Compound 177] | > 50 | < 99 | 
COc1ccc2c(c1)-c1nnc(COC3CCCC3)n1Cc1c(-c3noc(C(C)C)n3)ncn1-2 [Compound 178] | > 50 | < 99 | 
COc1ccc2c(c1)-c1nnc(COc3cccc(F)c3)n1Cc1c(-c3noc(C(C)C)n3)ncn1-2 [Compound 179] | > 50 | < 99 | 
CCOC(=O)c1ncn2c1Cn1c(C)nnc1-c1cc(OC)ccc1-2 [Ethyl 3-methoxy-7-methyl-9H-benzo[f]imidazo[1,5-a][1,2,4]tri] |  |  | effect on Ro 15-4513 binding in hippocampus [2]: blocked the binding; effect on cerebellum levels of Ro 15-4513 [3]: did not affect binding
CCOC(=O)c1ncn2c1CN(C)C(=O)c1cc(N=[N+]=[N-])ccc1-2 [Ro 15-4513] |  |  | Ro 15-4513 level in hippocampus compared with cerebellum (GABAAα5 receptor; tracer 1 μg/kg i.v.): > 5 fold; level of Ro 15-4513 in cerebellum (GABAAα5 receptor; [6]): 0.36 ± 0.02 ng/g; level of Ro 15-4513 in hippocampus (GABAAα5 receptor; [6]): 1.93 ± 0.05 ng/g
C#Cc1ccc2c(c1)C(c1ccccc1F)=N[C@H](C)c1c(C(=O)OCC)ncn1-2 [SH-053-2′F—R—CH3] |  |  | increased locomotor response to amphetamine in MAM-treated rats (MAM-treated rats; rat, in vivo): is reduced; cortical-evoked responses of HPC neurons (MAM-treated rats; saline-treated and MAM-treated animals): diminished cortical-evoked responses
CCOC(=O)c1ncn2c1Cn1c(C)nnc1-c1cc(OC)ccc1-2 [ethyl 3-methoxy-7-methyl-9H-benzo[f]imidazo[1,5-a][1,2,4]tri] |  |  | effect on Ro 15-4513 binding in hippocampus [2]: reduced Ro 15-4513 binding in hippocampus; α5-containing GABAA receptor occupancy ([2]; 10 mg/kg): > 90%; effect on cerebellum levels of Ro 15-4513 [3]: without affecting; memory performance relative to vehicle control (aged-impaired (AI) rats [4]; 3 mg/kg, t(7)=4.13, p=0.004, or t(7)=3.08, p=0.018): significantly improved memory performance; memory performance relative to vehicle control (aged-impaired (AI) rats [4]; 10 mg/kg, t(7)=2.82, p=0.026): significantly improved memory performance
